Data from publication PMC4718634, “Murine GPRC6A Mediates Cellular Responses to L-Amino Acids, but Not Osteocalcin Variants” (PLoS ONE, 2016).
“Also recorded” adds a separate entry of the source.

Experiments:
mGPRC6A (mouse GPRC6A) [1] = target: T1, mGPRC6A (mouse GPRC6A) (Mus musculus, UniProt Q8K4Z6); assay: ERK1/2 phosphorylation, FlpIn-TREx-HEK293-mGPRC6A cells; type: cell-based
T1 sequence (Q8K4Z6 21-928): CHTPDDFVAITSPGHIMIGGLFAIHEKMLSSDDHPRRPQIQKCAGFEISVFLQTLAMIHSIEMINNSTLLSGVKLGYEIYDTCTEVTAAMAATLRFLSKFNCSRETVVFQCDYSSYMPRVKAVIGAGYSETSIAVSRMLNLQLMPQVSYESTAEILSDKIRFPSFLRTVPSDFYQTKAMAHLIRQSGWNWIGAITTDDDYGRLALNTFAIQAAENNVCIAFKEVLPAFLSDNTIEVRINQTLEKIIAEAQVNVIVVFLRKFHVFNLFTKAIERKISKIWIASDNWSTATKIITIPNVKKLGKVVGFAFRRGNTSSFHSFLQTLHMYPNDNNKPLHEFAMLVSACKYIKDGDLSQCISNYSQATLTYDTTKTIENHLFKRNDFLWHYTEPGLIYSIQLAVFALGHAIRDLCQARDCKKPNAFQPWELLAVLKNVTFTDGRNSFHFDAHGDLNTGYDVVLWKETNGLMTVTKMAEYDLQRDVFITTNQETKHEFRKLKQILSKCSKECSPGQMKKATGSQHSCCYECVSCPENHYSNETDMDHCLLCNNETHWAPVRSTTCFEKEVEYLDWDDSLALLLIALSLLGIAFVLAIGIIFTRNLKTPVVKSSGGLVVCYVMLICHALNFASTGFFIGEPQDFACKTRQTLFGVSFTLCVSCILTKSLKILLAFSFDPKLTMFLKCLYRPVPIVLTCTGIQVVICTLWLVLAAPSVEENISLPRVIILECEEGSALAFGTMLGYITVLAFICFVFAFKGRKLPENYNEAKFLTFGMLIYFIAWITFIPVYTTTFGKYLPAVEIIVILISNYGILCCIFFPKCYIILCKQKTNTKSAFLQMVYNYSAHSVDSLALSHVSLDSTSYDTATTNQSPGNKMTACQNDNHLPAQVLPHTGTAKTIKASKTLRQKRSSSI
Experimental: pcDNA 5/FRT/TO constructs were isogenically integrated into a FlpIn-TREx-HEK293 cell line (Life Technologies). FlpIn-TREx-HEK293-mGPRC6A and FlpIn-TREx-HEK293-hGPRC6A cells were then selected using 600 μg/ml hygromycin and 5 μg/ml blasticidin and grown in culture medium consisting of Dulbecco’s Modified Eagle Medium (DMEM), supplemented with 10% (v/v) foetal bovine serum (FBS) at 37°C in 5% CO2 and were sub-cultured in a 1:3 ratio every 3–4 days. Cells were cultured overnight in the presence of 1 μg/ml tetracycline to induce GPRC6A expression. […] 48 h after transfection, cells were selected using 3 μg/ml puromycin and grown as above.
Cells were then stimulated with ligand at various time points and incubated at 37°C in 5% CO2. 10% FBS (v/v) was used as a positive control. The reaction was terminated by removal of compounds and lysis of cells with SureFire lysis buffer (TGR Biosciences). The lysates were then treated as per the SureFire ERK1/2 kit instructions. Plates were incubated in the dark at 37°C for 1 h, then left to equilibrate with the ambient temperature before the fluorescence signal was measured using a Fusion plate reader (PerkinElmer) with standard AlphaScreen settings. Data were normalised to the maximal response elicited by 10% FBS (v/v) at the same time point.

mGPRC6A (mouse GPRC6A) [2] = target: T1, mGPRC6A (mouse GPRC6A); assay: Label-free cell impedance (xCELLigence), tetracycline-induced FlpIn-TREx-HEK293-mGPRC6A cells; type: cell-based
Experimental: 2.5 x 10^7 FlpIn-TREx-HEK293-mGPRC6A cells were seeded in a T175 flask and incubated overnight at 37°C in 5% CO2. Cells were then transfected with 35 μg of plasmid DNA (GαqG66D) with Lipofectamine LTX according to manufacturer's instructions, then incubated for 24h at 37°C in 5% CO2. Prior to the experiment, a background reading for each E-plate 96 (Bio-Rad, CA, USA) was measured after addition of 100 μl DMEM + 10% FBS per well. Cells were recovered using Versene and seeded at a 10^5 cells/well density in 200 μl DMEM + 10% FBS (containing 1 μg/ml tetracycline where indicated). Cells were washed 2 x 2 h in HBSS buffer (pH 7.2) containing 20 mM HEPES, 1 mM CaCl2 and 0.1% BSA (w/v) in a total volume of 180 μl. Test compounds (20 μl at 10x final concentration) were added to the plate and cell impedance was monitored for 3 h. Cell index was normalised to the buffer response (minus the baseline response at zero time point).
Concentration-response data were analysed using a three or four parameter logistic function (Motulsky & Christopoulos, 2004) to generate estimates of agonist potency (LogEC50). Data for all HEK293 assays represent the mean ± SEM of at least three independent experiments (except cell impedance, n = 2). For GLP-1 release, the data represent mean ± SEM of three to five independent experiments (except for OCN, wash; n = 2). For insulin release assays, data represent the mean ± SEM of three independent experiments (except for islet studies; n = 2). Insulin release data were normalised to the response to vehicle in either low or high [glucose]. Statistical analysis for GLP-1 release data were performed by one-way ANOVA, followed by Sidak’s multiple comparisons test (treating wash / no wash datasets separately). Statistical analyses for insulin release data were performed by two-way ANOVA (with [glucose] and drug treatment as group variables), followed by Sidak’s multiple comparisons test. Where only high [glucose] groups were evaluated, statistical analysis was by one-way ANOVA followed by Sidak’s multiple comparisons test.

Row | Compound | stimulation of ERK1/2 phosphorylation (mGPRC6A (mouse GPRC6A) [1]; without GαqG66D, L-ornithine 1 mM, OCN variants 40 ng/ml, Fig 3B) | EC50 (mGPRC6A (mouse GPRC6A) [2]; tetracycline-induced, GαqG66D, xCELLigence, n = 2, read-out: pEC50, cell impedance (converted)) | cell impedance (cell index) response (mGPRC6A (mouse GPRC6A) [2]; tetracycline-induced, xCELLigence, Fig 4) | pERK1/2 response (summary) (mGPRC6A (mouse GPRC6A) [1]; S1 Table) | xCELLigence response (summary) (mGPRC6A (mouse GPRC6A) [2]; S1 Table)
1 | NCCC[C@H](N)C(=O)O [L-ornithine] | Neither L-ornithine (1 mM) nor OCN variants (40 ng/ml) stimulate ERK1/2 phosphorylation; also recorded: no detectable modulation of cAMP accumulation or phosphorylation of ERK1/2 | 63.1 µM | only mGPRC6A-expressing cells responded to L-ornithine; also recorded: increases cellular impedance only in tetracycline-induced cells |  | 
2 | OCN: osteoblast-derived peptide, osteocalcin; variant not specified at the place (YLYQWLGAPVPYPDPLEPRREVCELNPDCDELADHIGFQEAYRRFYGPV; UniProt P02818 52-100, looked up) |  |  |  | no response | No response
